Assay results published in patent US7687457B2, “Cyclic molecular framework and derivatives thereof” (The University of Queensland, priority 1999, dated 2010).
Where a SMILES comes first, the peptide text is derived from it.

System: erythrocytes
Assay: haemolytic activity, lysis of erythrocytes
Type: cell-based
Settings: haemolysis; read-out: concentration causing 50% lysis of erythrocytes

CC[C@H](C)[C@@H]1NC(=O)CNC(=O)[C@H](CC(N)=O)NC(=O)[C@H](Cc2ccc(O)cc2)NC(=O)[C@@H]2CSSC[C@@H]3NC(=O)[C@@H]4CCCN4C(=O)[C@H]([C@@H](C)CC)NC(=O)[C@H](Cc4ccc(O)cc4)NC(=O)[C@H](C(C)C)NC(=O)[C@@H]4CSSC[C@H](NC(=O)[C@H](CO)NC(=O)[C@H](CSSC[C@H](NC(=O)[C@@H]5CCCN5C1=O)C(=O)N[C@@H](C)C(=O)N[C@@H](CCC(=O)O)C(=O)N[C@@H](CO)C(=O)N4)NC(=O)CNC(=O)[C@H](CC(C)C)NC(=O)[C@H](CC(C)C)NC(=O)[C@H](C)NC(=O)[C@H]([C@@H](C)O)NC(=O)[C@H](C(C)C)NC(=O)[C@H]([C@@H](C)O)NC3=O)C(=O)N[C@@H](CO)C(=O)N[C@@H](CC(N)=O)C(=O)N[C@@H](CCCNC(=N)N)C(=O)N[C@@H](C(C)C)C(=O)N2 [cycloviolacin 01] (HELM PEPTIDE1{A.E.S.C.V.Y.I.P.C.T.V.T.A.L.L.G.C.S.C.S.N.R.V.C.Y.N.G.I.P.C}$PEPTIDE1,PEPTIDE1,4:R3-19:R3|PEPTIDE1,PEPTIDE1,9:R3-24:R3|PEPTIDE1,PEPTIDE1,17:R3-30:R3|PEPTIDE1,PEPTIDE1,1:R1-30:R2$$$V2.0)
EC50: ~20 µM
